From patent US8163795B2, “Chroman derivatives, medicaments and use in therapy” (Marshall Edwards, Inc., priority 2004, dated 2012)
Read-outs that look alike come from different tables or passages of the source.

Key:
Format in all cases: cell-based
[1] = system: TRAIL-sensitive and -resistant melanoma cells; assay: Apoptosis incidence, statements over several melanoma cell lines; settings: for incidence of apoptosis: 4 μM
[2] = system: Mel-RM melanoma cell line; assay: HMC combination with gemcitabine (synergy); settings: for IC50: Table 9, single agent
Protocol: (§1) IC50 values were determined for each cell line. Cells were seeded in 96-well plates at an appropriate cell density as determined from growth kinetics analysis and cultured for 5 days in the absence and presence of the test compounds. Cell proliferation was assessed after the addition of 20 μl of 3-4,5 dimethylthiazol-2,5-diphenyl tetrazolium bromide (MTT, 2.5 mg/ml in PBS, Sigma) for 3-4 hrs at 37° C. according to manufacturer's instructions. IC50 values were calculated from semi-log plots of % of control proliferation on the y-axis against log dose on the x-axis.
(§2) 3-D model analysis of the cytotoxic interaction between drug A and drug B enables the representation of predicted inhibitory effect of two drugs in combination in 3 dimensions to reveal actual regions of synergy or antagonism. The 3D synergy plots are based on a theory of “Theretical Additivity” (TA) as outlined by Kanzawa et al (Int. J. Cancer 71, 311-319 (1997)). Theoretical Additivity was calculated from the cytotoxicities of drug A and drug B as monotherapies using the following formula which assumes the drugs are mutually exclusive inhibitors: […]
(§3) The TA is calculated for each combination of drug concentrations and subtracted from the observed experimental effect for each combination to give a measurement of synergisitic action.
HMC synergy with gemcitabine was assessed either in combination over 5 days exposure or in sequence (HMC→gemcitabine) against the Mel-RM melanoma cell line. It was difficult to assess for synergisitic toxicity using a change in IC50 as a measure of synergy due to HMC toxicity as monotherapy (Table 9). […] Evidence of synergy using the HMC-gemcitabine combination was further assessed using the HMC→gemcitabine sequence (24 hr exposure to each compound in sequence) against the melanoma cell line Mel-RM. Using change in IC50 to assess for synergy it was noted that HMC at concentrations of 2 and 1 μM markedly chemosensitised the Mel-RM cells to gemcitabine by >1000 fold. HMC-induced chemosensitisation of Mel-RM cells to gemcitabine was confirmed using 3D analysis of the data.

[3] = system: MDA-MB-468 breast cancer cell line; assay: Proliferation assay (MTT); settings: Homo sapiens, Breast MDA-MB-468, read-out: IC50
4405 melanoma cell line = assay: HMC combination with paclitaxel (synergy); settings: for IC50: Table 10, single agent
Protocol: as §1, §2, §3
HMC synergy with paclitaxel was assessed either in combination over 5 days exposure or in sequence (HMC→paclitaxel) against the 4405 melanoma cell line. It was difficult to assess for synergisitic toxicity using a change in IC50 as a measure of synergy due to HMC toxicity as monotherapy (Table 10). […] Evidence of synergy using the HMC-paclitaxel combination was further assessed using the HMC→paclitaxel sequence (24 hr exposure to each compound in sequence) against the melanoma cell line 4405. Using change in IC50 to assess for synergy it was noted that HMC at concentrations of 2 μM markedly chemosensitised the 4405 cells to paclitaxel by >1000 fold (Table 10). HMC-induced chemosensitisation of […] cells to paclitaxel was confirmed using 3D analysis of the data.

MM200 melanoma cell line = assay: HMC combination with cisplatin (synergy); settings: for IC50: Table 8, single agent
Protocol: as §1, §2, §3
HMC synergy with cisplatin was assessed either in combination over 5 days exposure or in sequence (HMC→cisplatin) against the MM200 melanoma cell line. It was difficult to assess for synergisitic toxicity using a change in IC50 as a measure of synergy due to HMC toxicity as monotherapy (Table 8). […] Evidence of synergy using the HMC-cisplatin combination was further assessed using the HMC→cisplatin sequence (24 hr exposure to each compound in sequence) against the melanoma cell line MM200. Using change in IC50 to assess for synergy it was noted that HMC at concentrations of 2 μM markedly chemosensitised the MM200 cells to cisplatin by >1000 fold (Table 8). HMC induced chemosensitisation of MM200 cells to cisplatin was confirmed using 3D analysis of the data (FIG. 11B).

[4] = 120 h, 5 days exposure, read-out: IC50, Combined (monotherapy)
[5] = 24 hr exposure, read-out: IC50, 24 hr (monotherapy)

SMILES: COc1ccc(C2c3ccc(O)cc3OCC2c2ccc(O)cc2)cc1 (centres unmarked) [Compound 1, 3-(4-hydroxyphenyl)-4-(4-methoxyphenyl)chroman-7-ol]
- apoptosis ([1]; 2 μM, 24 and 48 hrs of exposure, all TRAIL-sensitive and -resistant melanoma cells): 7-10%
- incidence of apoptosis ([1]; 24 hr exposure, the other cell lines (not MEL-RM, IGR3)): ~9%
- incidence of apoptosis ([1]; 48 hr, all cell lines examined): 21-42%
- IC50 [2, 4]: 0.51 µM
- Change Factor (HMC first) ([2]; Gemcitabine block, HMC 1 uM 24 hr then gemcitabine 24 hr): >1000
- Change Factor (HMC first) ([2]; Gemcitabine block, HMC 2 uM 24 hr then gemcitabine 24 hr): >100
- chemosensitisation of Mel-RM cells to gemcitabine (change in IC50) ([2]; HMC 2 and 1 μM, HMC→gemcitabine sequence): > 1000 fold
- IC50 [2, 5]: 27.8 µM
- Change Factor (HMC first) ([2]; upper block of Table 9, HMC 1 uM first, sequence): >1000
- Change Factor (HMC first) ([2]; upper block of Table 9, HMC 2 uM first, sequence): >1000
- IC50 ([3]; MDA-MB-468, Table 2.1): 1.1 ± 0.35 µM
- IC50 ([3]; MDA-MB-468, Table 2.2): 2.8 ± 4.2 µM
- reduction in IC50 in the combination experiment vs paclitaxel monotherapy (4405 melanoma cell line; 5-day combination): 30 fold
- IC50 (4405 melanoma cell line; [4]): 1.26 µM
- chemosensitisation of 4405 cells to paclitaxel (change in IC50) (4405 melanoma cell line; HMC 2 μM, HMC→paclitaxel sequence): > 1000 fold
- Change Factor (HMC first) (4405 melanoma cell line; Paclitaxel block, HMC 1 uM 24 hr then paclitaxel 24 hr): 11.00
- Change Factor (HMC first) (4405 melanoma cell line; Paclitaxel block, HMC 2 uM 24 hr then paclitaxel 24 hr): 106633.75
- Change Factor (Combined) (4405 melanoma cell line; Paclitaxel block, with HMC 1 uM, 5-day combination): 30.36
- Change Factor (Combined) (4405 melanoma cell line; Paclitaxel block, with HMC 2 uM, 5-day combination): ?HMC effect
- IC50 (4405 melanoma cell line; [5]): 55.5 µM
- Change Factor (HMC first) (4405 melanoma cell line; upper block of Table 10, HMC 2 uM first, sequence): −1.035
- Change Factor (Combined) (4405 melanoma cell line; upper block of Table 10, HMC 2 uM, 5-day combination): 5964.400
- IC50 (MM200 melanoma cell line; [4]): 0.72 µM
- Change Factor (HMC first) (MM200 melanoma cell line; HMC 1 uM 24 hr then cisplatin 24 hr): −1.31
- Change Factor (HMC first) (MM200 melanoma cell line; HMC 2 uM 24 hr then cisplatin 24 hr): >10000
- chemosensitisation of MM200 cells to cisplatin (change in IC50) (MM200 melanoma cell line; HMC 2 μM, HMC→cisplatin sequence): > 1000 fold
- Change Factor (HMC first) (MM200 melanoma cell line; HMC 5 uM 24 hr then cisplatin 24 hr): >10000
- Change Factor (HMC first) (MM200 melanoma cell line; HMC 10 uM 24 hr then cisplatin 24 hr): >10000
- IC50 (MM200 melanoma cell line; [5]): 20.6 µM
